Experimental data published in patent US20120046457A1, “PREPARATION OF DECITABINE” (DR. REDDY'S LABORATORIES, INC., priority 2009, published 2012).

Columns and labels:
[1] = cited from earlier work
[2] = Storage stability of packaged anhydrous crystalline decitabine (TGA weight loss); format: physicochemical; conditions: 40±2° C., relative humidity 75±5%, described packaging
Protocol: Thermogravimetric analyses reported herein for decitabine were carried out using a SHIMADZU, DTG-60, Thermogravimetric Analyzer with a ramp of 10° C./minute up to 250° C.
In embodiments, the present application provides a storage system for decitabine. A storage system of the present application comprises at least one sealed polymeric bag, (e.g., a transparent or opaque polyethylene bag having a thickness of about 0.1 mm to about 0.5 mm) or a combination of such bags, which, if desired, may be sealed inside a laminated aluminum bag. An oxygen absorbent and a moisture absorbent (or desiccant), may be included between one or more of such bags. Finally, the packaged material is stored in sealed HDPE containers.
Anhydrous crystalline decitabine with an initial XRD pattern substantially in accordance with FIG. 4 remains stable for a period at least about 4 months, or about 6 months, when stored at 40±2° C. and a relative humidity of 75±5% under the packaging conditions described above. The TGA weight losses of representative samples stored under these conditions are tabulated below.

[3] = Hygroscopicity of decitabine (hygroscopic stability); format: physicochemical; conditions: for Moisture (Wt. %): room temperature
Protocol: Decitabine obtained from Example 10 is tested for hygroscopic stability. Samples are analyzed as initially prepared, and at intervals after 1 day and 7 days of storage at room temperature; the results are tabulated below.

period for which it remains stable [2] | TGA Weight Loss (%) ([2]; storage time 1 month) | TGA Weight Loss (%) ([2]; storage time 2 months) | TGA Weight Loss (%) ([2]; storage time 3 months) | TGA Weight Loss (%) ([2]; storage time 4 months) | Moisture (Wt. %) ([3]; 40-50% RH, 1 day) | Moisture (Wt. %) ([3]; 40-50% RH, 7 days) | Moisture (Wt. %) ([3]; 40-50% RH, initial) | Moisture (Wt. %) ([3]; 90% RH, 1 day) | Moisture (Wt. %) ([3]; 90% RH, 7 days) | Moisture (Wt. %) ([3]; 90% RH, initial) | moisture content acquired ([3]; exposed to the atmosphere) | solid form after moisture uptake ([3]; exposed to the atmosphere) | SMILES | stability ([1]; room temperature) | moisture at equilibrium ([1]; exposed to humidity, monohydrate formed) [%]
 |  |  |  |  |  |  |  |  |  |  |  |  | Nc1ncn([C@H]2C[C@H](O)[C@@H](CO)O2)c(=O)n1 [Decitabine monohydrate] | stable | 
at least 4 months | 0.07 | 0.15 | 0.26 | 0.16 | 6.63 | 7.12 | 0.18 | 5.46 | 7.17 | 0.18 | up to 1 mole | change to a monohydrate form | Nc1ncn([C@H]2C[C@H](O)[C@@H](CO)O2)c(=O)n1 [Decitabine, 4-amino-1-(2-deoxy-β-D-erythropentofuranosyl)-1,3,5-triazin-2(1H)-one] |  | 7
